Laboratory results: PubChem BioAssay AID1918938 (Molecular Pharmacology Branch, DTP, NCI, 2023)

Test system: 556581-035-R-J1-PDC complex spheroid viability
Test: Anticancer human tumor 556581-035-R-J1-PDC patient-derived ovarian carcinoma cell line growth inhibition
Settings: for IC50: curve of first compound; for viability, T/C: stronger effect = lower value
In short: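 Complex spheroids of tumor cells with HUVEC and human MSCs, exposed to iadademstat combined with other agents. Each agent tested in half-log steps from near clinical Cmax (else 10 microM top), DMSO ≤0.25%.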

[1] = second compound 0.1 µM, first compound 0.00949 µM
[2] = second compound 0.1 µM, first compound 0.03 µM
[3] = second compound 0.1 µM, first compound 0.0949 µM
[4] = second compound 0.1 µM, first compound 0.3 µM
[5] = second compound 0.316 µM, first compound 0.00949 µM
[6] = second compound 0.316 µM, first compound 0.03 µM
[7] = second compound 0.316 µM, first compound 0.0949 µM
[8] = second compound 0.316 µM, first compound 0.3 µM
[9] = second compound 1 µM, first compound 0.00949 µM
[10] = second compound 1 µM, first compound 0.03 µM
[11] = second compound 1 µM, first compound 0.0949 µM
[12] = second compound 1 µM, first compound 0.3 µM
[13] = second compound 3.16 µM, first compound 0.00949 µM
[14] = second compound 3.16 µM, first compound 0.03 µM
[15] = second compound 3.16 µM, first compound 0.0949 µM
[16] = second compound 3.16 µM, first compound 0.3 µM
[17] = second compound 10 µM, first compound 0.00949 µM
[18] = second compound 10 µM, first compound 0.03 µM
[19] = second compound 10 µM, first compound 0.0949 µM
[20] = second compound 10 µM, first compound 0.3 µM
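Further: spheroids exposed to agents for seven days.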
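Wherever viability, T/C is given: 100% = DMSO vehicle control wells.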

COc1cc(C2c3cc4c(cc3C(OC3OC5COC(C)OC5C(O)C3O)C3COC(=O)C23)OCO4)cc(OC)c1O (stereo not given) + NC1CCC(NC2CC2c2ccccc2)CC1
IC50 (second compound 0.1 µM): 481 nM
IC50 (second compound 0.316 µM): 451 nM
IC50 (second compound 1 µM): 559 nM
IC50 (second compound 3.16 µM): 501 nM
IC50 (second compound 10 µM): 330 nM
viability, T/C [1]: 86.7%
viability, T/C [2]: 84.7%
viability, T/C [3]: 68.6%
viability, T/C [4]: 55.5%
viability, T/C (second compound 0.1 µM, first compound 0.949 µM): 42.3%
viability, T/C (second compound 0.1 µM, first compound 3 µM): 26.2%
viability, T/C [5]: 107%
viability, T/C [6]: 84.7%
viability, T/C [7]: 75.3%
viability, T/C [8]: 58.6%
viability, T/C (second compound 0.316 µM, first compound 0.949 µM): 36.1%
viability, T/C (second compound 0.316 µM, first compound 3 µM): 23.9%
viability, T/C [9]: 76.8%
viability, T/C [10]: 76.2%
viability, T/C [11]: 68.3%
viability, T/C [12]: 58.8%
viability, T/C (second compound 1 µM, first compound 0.949 µM): 42.6%
viability, T/C (second compound 1 µM, first compound 3 µM): 19.2%
viability, T/C [13]: 88.6%
viability, T/C [14]: 66.5%
viability, T/C [15]: 74.9%
viability, T/C [16]: 53.5%
viability, T/C (second compound 3.16 µM, first compound 0.949 µM): 45.8%
viability, T/C (second compound 3.16 µM, first compound 3 µM): 23.4%
viability, T/C [17]: 71.3%
viability, T/C [18]: 68.4%
viability, T/C [19]: 68.7%
viability, T/C [20]: 48.3%
viability, T/C (second compound 10 µM, first compound 0.949 µM): 38.8%
viability, T/C (second compound 10 µM, first compound 3 µM): 28.4%

Nc1ccn(C2OC(CO)C(O)C2(F)F)c(=O)n1 (stereo not given) + NC1CCC(NC2CC2c2ccccc2)CC1
IC50 (second compound 0.1 µM): 2.48 nM
IC50 (second compound 0.316 µM): 2.57 nM
IC50 (second compound 1 µM): 2.34 nM
IC50 (second compound 3.16 µM): 2.4 nM
IC50 (second compound 10 µM): 1.98 nM
viability, T/C (second compound 0.1 µM, first compound 0.000949 µM): 75.4%
viability, T/C (second compound 0.1 µM, first compound 0.003 µM): 44.4%
viability, T/C [1]: 43.3%
viability, T/C [2]: 39.6%
viability, T/C [3]: 40.3%
viability, T/C [4]: 36.5%
viability, T/C (second compound 0.316 µM, first compound 0.000949 µM): 76.9%
viability, T/C (second compound 0.316 µM, first compound 0.003 µM): 45.8%
viability, T/C [5]: 33.2%
viability, T/C [6]: 36%
viability, T/C [7]: 34.5%
viability, T/C [8]: 34.1%
viability, T/C (second compound 1 µM, first compound 0.000949 µM): 65.5%
viability, T/C (second compound 1 µM, first compound 0.003 µM): 48.3%
viability, T/C [9]: 33.5%
viability, T/C [10]: 42.7%
viability, T/C [11]: 40.5%
viability, T/C [12]: 37.8%
viability, T/C (second compound 3.16 µM, first compound 0.000949 µM): 63%
viability, T/C (second compound 3.16 µM, first compound 0.003 µM): 46.3%
viability, T/C [13]: 41.5%
viability, T/C [14]: 42.8%
viability, T/C [15]: 40.7%
viability, T/C [16]: 36.1%
viability, T/C (second compound 10 µM, first compound 0.000949 µM): 61.1%
viability, T/C (second compound 10 µM, first compound 0.003 µM): 44.9%
viability, T/C [17]: 36.8%
viability, T/C [18]: 42.2%
viability, T/C [19]: 38.3%
viability, T/C [20]: 42.7%

Nc1ncn(C2CC(O)C(CO)O2)c(=O)n1 (stereo not given) + NC1CCC(NC2CC2c2ccccc2)CC1
IC50 (second compound 0.1 µM): > 1000 nM
IC50 (second compound 0.316 µM): > 1000 nM
IC50 (second compound 1 µM): > 1000 nM
IC50 (second compound 3.16 µM): > 1000 nM
IC50 (second compound 10 µM): > 1000 nM
viability, T/C (second compound 0.1 µM, first compound 0.00316 µM): 96%
viability, T/C (second compound 0.1 µM, first compound 0.01 µM): 98%
viability, T/C (second compound 0.1 µM, first compound 0.0316 µM): 87.2%
viability, T/C (second compound 0.1 µM, first compound 0.1 µM): 80%
viability, T/C (second compound 0.1 µM, first compound 0.316 µM): 79.3%
viability, T/C (second compound 0.1 µM, first compound 1 µM): 77.2%
viability, T/C (second compound 0.316 µM, first compound 0.00316 µM): 87.8%
viability, T/C (second compound 0.316 µM, first compound 0.01 µM): 90.2%
viability, T/C (second compound 0.316 µM, first compound 0.0316 µM): 84%
viability, T/C (second compound 0.316 µM, first compound 0.1 µM): 82.2%
viability, T/C (second compound 0.316 µM, first compound 0.316 µM): 79.1%
viability, T/C (second compound 0.316 µM, first compound 1 µM): 77.7%
viability, T/C (second compound 1 µM, first compound 0.00316 µM): 96.5%
viability, T/C (second compound 1 µM, first compound 0.01 µM): 84.3%
viability, T/C (second compound 1 µM, first compound 0.0316 µM): 89.5%
viability, T/C (second compound 1 µM, first compound 0.1 µM): 75.2%
viability, T/C (second compound 1 µM, first compound 0.316 µM): 71.8%
viability, T/C (second compound 1 µM, first compound 1 µM): 76.8%
viability, T/C (second compound 3.16 µM, first compound 0.00316 µM): 88.9%
viability, T/C (second compound 3.16 µM, first compound 0.01 µM): 84.5%
viability, T/C (second compound 3.16 µM, first compound 0.0316 µM): 82.7%
viability, T/C (second compound 3.16 µM, first compound 0.1 µM): 67.2%
viability, T/C (second compound 3.16 µM, first compound 0.316 µM): 80.5%
viability, T/C (second compound 3.16 µM, first compound 1 µM): 76.7%
viability, T/C (second compound 10 µM, first compound 0.00316 µM): 73.8%
viability, T/C (second compound 10 µM, first compound 0.01 µM): 82.5%
viability, T/C (second compound 10 µM, first compound 0.0316 µM): 76.4%
viability, T/C (second compound 10 µM, first compound 0.1 µM): 70.8%
viability, T/C (second compound 10 µM, first compound 0.316 µM): 65.9%
viability, T/C (second compound 10 µM, first compound 1 µM): 64.7%
